How the values were obtained:
[1] = test system: MDA-MB231 cells; assay: Soft-agar colony formation, MDA-MB231; assay type: cell-based, human; conditions: 10 μM
Protocol: (§1) FIGS. 2A-G illustrate effects of 968 on the transforming activity of constitutively active Rho GTPases and human breast cancer cells. […] Cells were scored after 14 days and plotted as the percentage of the total number of colonies greater than 50 μm in diameter. Data represent the average of 3 experiments (±s.d.). […] Data represent the average of 3 experiments (±s.d.). […] Data represent the average of 3 experiments (±s.d.). […] After 24 hours at 37° C., the migratory cells were fixed, stained with GIEMSA, and counted. Data represent the average of 3 experiments (±s.d.). […] Data represent the average of 3 experiments (±s.d.). […] Data represent the average of 3 experiments (±s.d.). […] Data represent the average of 3 experiments (±s.d.).

[2] = test system: NIH 3T3 cells stably expressing Cdc42(F28L) and transiently expressing mouse GAC; assay: Focus formation of Cdc42(F28L) cells transiently expressing GAC; assay type: cell-based
Text: FIGS. 4A-E illustrate the role of glutaminase C activity in cellular transformation. […] Data represent the average of 3 experiments (±s.d.). […] Data represent the average of 3 experiments (±s.d.). […] 100% represents the activity measured in untreated Dbl-transformed cells. The data represent the average of 2 experiments. […] 100% represents the activity measured in untreated SKBR3 cells. The data represent the average of 2 experiments. […] Data represent the average of 3 experiments (±s.d.).

[3] = test system: NIH 3T3 cells stably expressing Cdc42(F28L), Rac(F28L), RhoC(F30L); assay: Invasion through growth factor-reduced Matri-gel; assay type: cell-based, mouse; conditions: 10 μM, 24 hours
Protocol: as §1

[4] = test system: GACΔC (C-terminal truncation mutant of GAC); assay: Glutaminase activity of immunoprecipitated GACΔC from treated Dbl-transformed cells; assay type: cell-based, mouse; conditions: 10 μM, 48 hours
[5] = target: T1, GAC phosphorylation (Mus musculus, UniProt D3Z7P3); assay: 2-D gel analysis of V5-GAC phosphorylation states from treated Dbl cells; assay type: cell-based; conditions: 968 10 μM, 48 hours
T1 construct: expressed in transfected cells; host or cells: NIH 3T3 cells (stably expressing Dbl, or parental), transient transfection
T1 sequence (D3Z7P3 55-603 isoform D3Z7P3-2 limits assumed): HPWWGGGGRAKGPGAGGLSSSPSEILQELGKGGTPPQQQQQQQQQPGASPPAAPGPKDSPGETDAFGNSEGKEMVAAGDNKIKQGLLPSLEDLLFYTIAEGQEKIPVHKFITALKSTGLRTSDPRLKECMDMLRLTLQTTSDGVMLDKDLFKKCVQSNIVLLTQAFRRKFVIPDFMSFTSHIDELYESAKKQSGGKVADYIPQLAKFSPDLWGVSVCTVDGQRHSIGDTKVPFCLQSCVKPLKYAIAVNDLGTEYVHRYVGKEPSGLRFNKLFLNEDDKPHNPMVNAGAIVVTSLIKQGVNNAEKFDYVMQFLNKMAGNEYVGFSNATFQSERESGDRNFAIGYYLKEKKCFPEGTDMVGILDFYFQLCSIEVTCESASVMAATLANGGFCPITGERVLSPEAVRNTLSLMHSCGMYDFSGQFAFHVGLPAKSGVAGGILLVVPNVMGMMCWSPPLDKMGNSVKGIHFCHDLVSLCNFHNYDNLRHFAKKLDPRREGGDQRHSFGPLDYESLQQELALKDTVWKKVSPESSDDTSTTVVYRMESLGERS
Protocol: NIH 3T3 cells stably expressing the Dbl oncogene, were transiently transfected with DNA encoding a VS-tagged GAC, and then one sample was treated with 968 (10 μM) for 48 hours. The cells were then harvested and the ectopically expressed GAC was isolated by immunoprecipitation via the V5 tag. The samples were then subjected to 2-D gel analysis to separate the V5-GAC by charge and size, and the V5-tagged GAC was visualized by Western blotting using an anti-V5 antibody.
GAC runs distinctly on a 2D gel depending whether it is expressed in normal (untransformed) NIH 3T3 cells or in NIH 3T3 cells which are transformed by the Dbl oncogene. Specifically, there is one major species of GAC present in NIH 3T3 cells whereas in Dbl cells, two additional species of GAC appear which migrate with a more negative charge but at the same molecular mass as the original species (FIG. 21, first and second panels). […] Additionally, it has been shown that small molecules of the 968 family which are able to inhibit GAC in vivo do so by blocking the ability of GAC to become phosphorylated. Thus, it was of great interest to identify the amino acid(s) on GAC whose phosphorylation is causal in the activation of this enzyme.

CN(C)c1ccc(C2Nc3ccc4ccccc4c3C3=C2C(=O)CC(C)(C)C3)cc1Br (centres unmarked) [Compound 968, 5-[3-bromo-4-(dimethylamino)phenyl]-2,2-dimethyl-2,3,5,6-tetrahydrobenzo[a]]
colony formation in soft agar [1]: inhibits the ability | focus-forming activity [2]: can be blocked | invasive activity [3]: inhibiting their invasive activity | basal activity of GACΔC [4]: not further reduced | phosphorylation state of GAC [5]: significant reduction of at least one phosphorylation state of GAC

From patent US20130252983A1, “ACTIVATING PHOSPHORYLATION SITE ON GLUTAMINASE C” (CORNELL UNIVERSITY, priority 2010, published 2013)
